Laboratory results: ChEMBL document CHEMBL1201862, “PubChem BioAssay data set” (2004)
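Tested at 5 concentrations; 48 h exposure; 96-well plates; endpoints linearly interpolated, else capped at highest concentration. GI50: concentration for 50% inhibition of growth.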 The source made the active and inactive calls. Cut-off read from the data, not from the text of the source: active = GI50 up to about 1.1 µM and inactive = higher.

How the values were obtained:
Assay in all cases: NCI anticancer screen, dose series, 48 h
RXF 393 = tested on: RXF 393
NCI-H522 = tested on: NCI-H522
SK-MEL-28 = tested on: SK-MEL-28
TK-10 = tested on: TK-10
786-0 = tested on: 786-0
MOLT-4 = tested on: MOLT-4
UACC-257 = tested on: UACC-257
SK-MEL-2 = tested on: SK-MEL-2
OVCAR-5 = tested on: OVCAR-5
CCRF-CEM = tested on: CCRF-CEM
A549 = tested on: A549
ACHN = tested on: ACHN
CAKI-1 = tested on: CAKI-1
HCC 2998 = tested on: HCC 2998
HOP-62 = tested on: HOP-62
HCT-116 = tested on: HCT-116
SW-620 = tested on: SW-620
LOX IMVI = tested on: LOX IMVI
MDA-MB-435 = tested on: MDA-MB-435
COLO 205 = tested on: COLO 205

Compound | GI50 (RXF 393) | GI50 (NCI-H522) | GI50 (SK-MEL-28) | GI50 (TK-10) | GI50 (786-0) | GI50 (MOLT-4) | GI50 (UACC-257) | GI50 (SK-MEL-2) | GI50 (OVCAR-5) | GI50 (CCRF-CEM) | GI50 (A549) | GI50 (ACHN) | GI50 (CAKI-1) | GI50 (HCC 2998) | GI50 (HOP-62) | GI50 (HCT-116) | GI50 (SW-620) | GI50 (LOX IMVI) | GI50 (MDA-MB-435) | GI50 (COLO 205)
COc1cc(/C=C2\CCc3cc(OC)c(OC)cc3C2=O)cc(OC)c1 | 4.9 µM (inactive) | 5.93 µM (inactive) | 15.8 µM (inactive) | 24 µM (inactive) | 4.66 µM (inactive) | 12.8 µM (inactive) | 19.7 µM (inactive) | 5.96 µM (inactive) | 24.2 µM (inactive) | 4.08 µM (inactive) | 5.2 µM (inactive) | 30.3 µM (inactive) | 8.67 µM (inactive) | 5.3 µM (inactive) | 7.94 µM (inactive) | 3.81 µM (inactive) | 6.19 µM (inactive) | 6.3 µM (inactive) | 1.99 µM (inactive) | 3.28 µM (inactive)
O=C(NCCc1ccccc1)c1cc(/C=C/c2cc(O)ccc2O)ccc1O | 1.93 µM (inactive) | 1.64 µM (inactive) | 3.08 µM (inactive) | 2.93 µM (inactive) | 2.38 µM (inactive) | 2.52 µM (inactive) | 2.64 µM (inactive) | 3.57 µM (inactive) | 8.69 µM (inactive) | 2.11 µM (inactive) | 10.3 µM (inactive) | 2.2 µM (inactive) | 2.94 µM (inactive) | 10.1 µM (inactive) | 5.69 µM (inactive) | 1.81 µM (inactive) | 5.71 µM (inactive) | 4.17 µM (inactive) | 3.96 µM (inactive) | 5.61 µM (inactive)
C=C1C(=O)O[C@H]2[C@@H](O)[C@H](C)CCC/C(C)=C/CC[C@@]3(C)O[C@@H]3C[C@@H]12 | 2.85 µM (inactive) | 2.68 µM (inactive) | 13.7 µM (inactive) | 1.86 µM (inactive) | 3.61 µM (inactive) | 2.29 µM (inactive) | 9.16 µM (inactive) | 18.1 µM (inactive) | 15.7 µM (inactive) | 1.07 µM (active) | 20.5 µM (inactive) | 2.16 µM (inactive) | 2.33 µM (inactive) | 13.2 µM (inactive) | 22.3 µM (inactive) | 3.19 µM (inactive) | 10.2 µM (inactive) | 4.43 µM (inactive) | 7.5 µM (inactive) | 3.93 µM (inactive)
Fc1ccccc1-c1cc(S)c2cc3c(cc2n1)OCO3 | > 54.2 µM (inactive) | 13.8 µM (inactive) | 27.9 µM (inactive) | > 48.3 µM (inactive) | 10.4 µM (inactive) | 9.62 µM (inactive) | 8.47 µM (inactive) | 7.69 µM (inactive) | > 51.3 µM (inactive) | 13.4 µM (inactive) | 5.52 µM (inactive) | 38 µM (inactive) | 9.93 µM (inactive) | 5.53 µM (inactive) | > 70.5 µM (inactive) | 7.08 µM (inactive) | 5.85 µM (inactive) | 10.9 µM (inactive) | 3.59 µM (inactive) | 28.6 µM (inactive)
O=c1[nH]n(Cc2ccccc2CCl)c2ccc([N+](=O)[O-])cc12 | 32.9 µM (inactive) | 22.9 µM (inactive) | 34.5 µM (inactive) | 54.3 µM (inactive) | 55.5 µM (inactive) | 26.6 µM (inactive) | 64.4 µM (inactive) | 43.4 µM (inactive) | > 100 µM (inactive) | 28.7 µM (inactive) | 31.2 µM (inactive) | 55.3 µM (inactive) | 25 µM (inactive) | 21.7 µM (inactive) | 47.6 µM (inactive) | 41.4 µM (inactive) | 49 µM (inactive) | 55.7 µM (inactive) | 35.1 µM (inactive) | 26.1 µM (inactive)
COc1ccc(NC(=O)C(=O)Cc2nc3ccc(C(=O)c4ccccc4)cc3nc2O)c([N+](=O)[O-])c1 | 23.1 µM (inactive) | 12.8 µM (inactive) | 25.8 µM (inactive) | 24.9 µM (inactive) | 39.1 µM (inactive) | 17.6 µM (inactive) | 22.6 µM (inactive) | 55.1 µM (inactive) | > 100 µM (inactive) | 28.2 µM (inactive) | 47.1 µM (inactive) | 43.6 µM (inactive) | 14.9 µM (inactive) | 29.8 µM (inactive) | 34.6 µM (inactive) | 28.1 µM (inactive) | 19.1 µM (inactive) | 25.2 µM (inactive) | 12.1 µM (inactive) | 16 µM (inactive)
S=C(N/N=C(/c1ccccc1)c1ccccn1)Nc1ccc(Cl)cc1 | 1.85 µM (inactive) | 1.16 µM (inactive) | 2.28 µM (inactive) | 0.551 µM (active) | 1.05 µM (active) | < 0.0171 µM (active) | 0.0569 µM (active) | 0.455 µM (active) | 0.0705 µM (active) | < 0.0155 µM (active) | 1.97 µM (inactive) | 0.322 µM (active) | 0.264 µM (active) | 1.88 µM (inactive) | 1.93 µM (inactive) | < 0.0162 µM (active) | 0.0423 µM (active) | 0.164 µM (active) | 2.22 µM (inactive) | 0.0418 µM (active)
CC1(C)N=C2C(=O)c3c([nH]c4ccccc34)[C@]3(C)CCC1CC23 (stereo not given in full) | > 6.25 µM (inactive) | > 6.25 µM (inactive) | > 6.25 µM (inactive) | > 6.25 µM (inactive) | > 6.25 µM (inactive) | > 6.25 µM (inactive) | > 6.25 µM (inactive) | > 6.25 µM (inactive) | > 6.25 µM (inactive) | > 6.25 µM (inactive) | > 6.25 µM (inactive) | > 6.25 µM (inactive) | > 6.25 µM (inactive) | > 6.25 µM (inactive) | > 6.25 µM (inactive) | > 6.25 µM (inactive) | > 6.25 µM (inactive) | > 6.25 µM (inactive) | > 6.25 µM (inactive) | > 6.25 µM (inactive)
CN(C)C(=S)/N=c1\ssc(=S)n1Cc1cccs1 | 2.19 µM (inactive) | 0.39 µM (active) | 8.41 µM (inactive) | 8.24 µM (inactive) | 3.83 µM (inactive) | 17.5 µM (inactive) | 6.76 µM (inactive) | 2.88 µM (inactive) | > 55.3 µM (inactive) | 6.46 µM (inactive) | 5.27 µM (inactive) | 9.35 µM (inactive) | 3.11 µM (inactive) | 6.7 µM (inactive) | 3.64 µM (inactive) | 3.15 µM (inactive) | 2.07 µM (inactive) | 4.06 µM (inactive) | 0.658 µM (active) | 2.36 µM (inactive)
COC(=O)c1cc(O)c(O)c(O)c1-c1c(O)c(O)c(O)c(SC[C@H](NC(=O)OCc2ccccc2)C(=O)OCc2ccccc2)c1C(=O)OC | 20.2 µM (inactive) | 22.3 µM (inactive) | 30.1 µM (inactive) | 67.9 µM (inactive) | 18.6 µM (inactive) | 17.6 µM (inactive) | 32.8 µM (inactive) | 19.9 µM (inactive) | 33.9 µM (inactive) | 16.3 µM (inactive) | 17.9 µM (inactive) | 22.5 µM (inactive) | 18.7 µM (inactive) | 24.1 µM (inactive) | 35.1 µM (inactive) | 17.3 µM (inactive) | 23.8 µM (inactive) | 17.9 µM (inactive) | 11.1 µM (inactive) | 22.6 µM (inactive)
Cn1c2ccccc2c2c3c(=O)[nH][nH]c(=O)c3c3c4ccccc4n(C)c3c21 | > 100 µM (inactive) | 1.09 µM (active) | > 100 µM (inactive) | > 100 µM (inactive) | > 100 µM (inactive) | > 100 µM (inactive) | > 100 µM (inactive) | > 100 µM (inactive) | > 100 µM (inactive) | 0.655 µM (active) | > 100 µM (inactive) | > 100 µM (inactive) | > 100 µM (inactive) | > 100 µM (inactive) | > 96.6 µM (inactive) | 78.3 µM (inactive) | > 100 µM (inactive) | > 100 µM (inactive) | > 100 µM (inactive) | > 89.1 µM (inactive)
O=C(O)CN(CC(=O)O)Cc1cc(C#Cc2ccc(C#Cc3ccccc3)cc2)cc(CN(CC(=O)O)CC(=O)O)n1 | 15.7 µM (inactive) | 17.2 µM (inactive) | > 52 µM (inactive) | 17.5 µM (inactive) | 13.1 µM (inactive) | 8.91 µM (inactive) | 40.8 µM (inactive) | 29.2 µM (inactive) | 26.4 µM (inactive) | 29.4 µM (inactive) | 29.1 µM (inactive) | 32 µM (inactive) | 10.6 µM (inactive) | 4.63 µM (inactive) | 18.4 µM (inactive) | 8.87 µM (inactive) | 15.7 µM (inactive) | 11.1 µM (inactive) | 22.8 µM (inactive) | 11.5 µM (inactive)
Nc1ccccc1OCCCOc1ccccc1N | > 100 µM (inactive) | > 100 µM (inactive) | > 100 µM (inactive) | > 100 µM (inactive) | > 100 µM (inactive) | > 100 µM (inactive) | > 100 µM (inactive) | > 100 µM (inactive) | > 100 µM (inactive) | > 100 µM (inactive) | > 100 µM (inactive) | > 100 µM (inactive) | > 100 µM (inactive) | > 100 µM (inactive) | > 100 µM (inactive) | > 100 µM (inactive) | > 100 µM (inactive) | > 100 µM (inactive) | 57.1 µM (inactive) | > 100 µM (inactive)
Cn1c(=O)c2c(nc3n(CC(O)CCl)c(=O)ccn23)n(C)c1=O (stereo not given) | > 100 µM (inactive) | 16.6 µM (inactive) | 66.7 µM (inactive) | 89.3 µM (inactive) | 26.4 µM (inactive) | 6.17 µM (inactive) | 76.6 µM (inactive) | > 100 µM (inactive) | > 100 µM (inactive) | 5.19 µM (inactive) | 64 µM (inactive) | 15.4 µM (inactive) | 17 µM (inactive) | 58.7 µM (inactive) | 46.9 µM (inactive) | 18.2 µM (inactive) | 46.8 µM (inactive) | 29.1 µM (inactive) | 47.8 µM (inactive) | 36.8 µM (inactive)
